Literature values in patent US5900412A, “Percutaneous/transdermal delivery of ASA and antithrombotic therapies based thereon” (Luitpold Pharma GmbH, priority 1996, dated 1999).

For `CC(=O)Oc1ccccc1C(=O)O` [ASA, acetylsalicylic acid], the “acetylation and inactivation of cyclooxygenase (in words)” value (cyclooxygenase) is given as “irreversible acetylation, and consequently prolonged inactivation, of cyclooxygenase”, the “duration of inhibition of thromboxane synthesis (life of the thrombocytes)” value (cyclooxygenase; blood platelets) is given as 1 month and the “absolute bio-availability of ASA” value (following peroral administration) is given as 50%-70. For the same compound, the “metabolism of ASA to SA (in words)” value (gastrointestinal fluids, absorption in stomach and intestine, blood plasma) was “rapidly metabolized to its principal metabolite SA”.
